Test results from patent US20170008921A1, “C-3 NOVEL TRITERPENONE WITH C-28 REVERSE AMIDE DERIVATIVES AS HIV INHIBITORS” (HETERO RESEARCH FOUNDATION, priority 2015, published 2017).

How the values were obtained:
[1] = Cyto-toxicity (MTT assay); type: cell-based
[2] = Single dose oral pharmacokinetic study; type: in vivo; conditions: mouse, Mice oral PK @30 mg/kg, plasma, vehicle 10% Solutol+20% PEG; for AUC(0-t): read-out: AUC0-t; for Cmax: read-out: Cmax
Method: The test item was administered through oral route to animals (rat/mice) at 30 mg/kg dose in a suitable vehicle (10% Solutol+20% PEG) at 10 ml/kg dose volume. Blood samples (˜50 μL at each time point) were collected from retro-orbital plexus using K3 EDTA as anticoagulant in eppendorf tubes at defined time intervals 30 minutes, 1 hour, 2 hour, 4 hour, 8 hour, 24 hour & 48 hour under light ether anaesthesia. The samples were centrifuged at 3500×g to separate plasma and stored at −80° C. until analysis. Plasma 25 μl for Mice were processed as per described in sample preparation.
Standard solutions of the test compound 1 mg/mL solutions were prepared in DMSO and further dilutions were made in methanol. […] To the test compound plasma extraction was carried out using Acetonitrile precipitation. After reconstitution with solvent (50% Acetonitrile in Buffer) samples were analyzed by LCMSMS to get the concentrations to calculate PK Parameters.

Row | Structure (SMILES) | viability at 4 days, 0.01 µM [1] | viability at 4 days, 0.1 µM [1] | viability at 4 days, 1 µM [1] | AUC(0-t) [2] | Cmax [2] | viability at 4 days, 0.001 µM [1] | viability at 4 days, 0.003 µM [1]
1 | CC(C)C1=C2[C@H]3CC[C@@H]4[C@@]5(C)CC[C@H](OC(=O)[C@H]6C[C@@H](C(=O)O)C6(C)C)C(C)(C)[C@@H]5CC[C@@]4(C)[C@]3(C)CC[C@@]2(NC(=O)C2(NC(=O)c3ccc(Cl)cc3)CC2)CC1=O [Example 37, (1R,3S)-3-((((3aR,5aR,5bR,7aR,9S,11aR,11bR,13aS)-3a-(1-(4-chlorobenzamido)cyclopropane-1-carboxamido)-1-isopropyl-5a,5b,8,8,11a-pentamethyl-2-oxo-3,3a,4,5,5a,5b,6,7,7a,8,9,10,11,11a,11b,12,13,13a-octadecahydro-2H-cyclopenta[a]chrysen-9-yl)oxy)carbonyl)-2,2-dimethylcyclobutane-1-carboxylic acid] | 26% | 4% | 1% | 874 µg·h/mL | 38800 ng/mL |  | 
2 | Cc1occc1C(=O)NC(C)(C)C(=O)N[C@@]12CC[C@]3(C)[C@H](CC[C@@H]4[C@@]5(C)CC[C@H](OC(=O)[C@H]6C[C@@H](C(=O)O)C6(C)C)C(C)(C)[C@@H]5CC[C@]43C)C1=C(C(C)C)C(=O)C2 [Example 30, (1R,3S)-3-((((3aR,5aR,5bR,7aR,9S,11aR,11bR,13aS)-1-isopropyl-5a,5b,8,8,11a-pentamethyl-3a-(2-methyl-2-(2-methylfuran-3-carboxamido)propan amido)-2-oxo-3,3a,4,5,5a,5b,6,7,7a,8,9,10,11,11a,11b,12,13,13a-octadecahydro-2H-cyclopenta[a]chrysen-9-yl)oxy)carbonyl)-2,2-dimethylcyclobutane-1-carboxylic acid] | 30% | 3% | 2% | 477 µg·h/mL | 23000 ng/mL |  | 
3 | CC(C)C1=C2[C@H]3CC[C@@H]4[C@@]5(C)CC[C@H](OC(=O)[C@H]6C[C@@H](C(=O)O)C6(C)C)C(C)(C)[C@@H]5CC[C@@]4(C)[C@]3(C)CC[C@@]2(NC(=O)C(C)(C)NC(=O)c2ccc3ccccc3n2)CC1=O [Example 28, (1R,3S)-3-((((3aR,5aR,5bR,7aR,9S,11aR,11bR,13aS)-1-isopropyl-5a,5b,8,8,11a-pentamethyl-3a-(2-methyl-2-(quinoline-2-carboxamido)propanamido)-2-oxo-3,3a,4,5,5a,5b,6,7,7a,8,9,10,11,11a,11b,12,13,13a-octadecahydro-2H-cyclopenta[a]chrysen-9-yl)oxy)carbonyl)-2,2-dimethylcyclobutane-1-carboxylic acid] | 21% | 10% | 6% | 345 µg·h/mL | 16200 ng/mL |  | 
4 | CCOC(=O)NC(C)(C)C(=O)N[C@@]12CC[C@]3(C)[C@H](CC[C@@H]4[C@@]5(C)CC[C@H](OC(=O)[C@H]6C[C@@H](C(=O)O)C6(C)C)C(C)(C)[C@@H]5CC[C@]43C)C1=C(C(C)C)C(=O)C2 [Example 64, (1R,3S)-3-((((3aR,5aR,5bR,7aR,9S,11aR,11bR,13aS)-3a-(2-((ethoxycarbonyl)amino)-2-methylpropanamido)-1-isopropyl-5a,5b. 8,8,11a-pentamethyl-2-oxo-3,3a,4,5,5a,5b,6,7,7a,8,9,10,11,11a,11b,12,13,13a-octadecahydro-2H-cyclopenta[a]chrysen-9-yl)oxy)carbonyl)-2,2-dimethylcyclobutane-1-carboxylic acid] | 26% | 2% | 1% | 336 µg·h/mL | 27400 ng/mL |  | 
5 | Cc1cccc(NC(=O)NC(C)(C)C(=O)N[C@@]23CC[C@]4(C)[C@H](CC[C@@H]5[C@@]6(C)CC[C@H](OC(=O)[C@H]7C[C@@H](C(=O)O)C7(C)C)C(C)(C)[C@@H]6CC[C@]54C)C2=C(C(C)C)C(=O)C3)n1 [Example 72, (1R,3S)-3-((((3aR,5aR,5bR,7aR,9S,11aR,11bR,13aS)-1-isopropyl-5a,5b,8,8,11a-pentamethyl-3a-(2-methyl-2-(3-(6-methylpyridin-2-yl)ureido)propanamido)-2-oxo-3,3a,4,5,5a,5b,6,7,7a,8,9,10,11,11a,11b,12,13,13a-octadecahydro-2H-cyclopenta[a]chrysen-9-yl)oxy)carbonyl)-2,2-dimethylcyclobutane-1-carboxylic acid] | 27% |  |  | 192 µg·h/mL | 15300 ng/mL | 98% | 84%
6 | CC(C)C1=C2[C@H]3CC[C@@H]4[C@@]5(C)CC[C@H](OC(=O)[C@H]6C[C@@H](C(=O)O)C6(C)C)C(C)(C)[C@@H]5CC[C@@]4(C)[C@]3(C)CC[C@@]2(NC(=O)C(C)(C)NC(=O)c2cccnc2N2CCOCC2)CC1=O [Example 31, (1R,3S)-3-((((3aR,5aR,5bR,7aR,9S,11aR,11bR,13aS)-1-isopropyl-5a,5b,8,8,11a-pentamethyl-3a-(2-methyl-2-(2-morpholinonicotinamido)propan amido)-2-oxo-3,3a,4,5,5a,5b,6,7,7a,8,9,10,11,11a,11b,12,13,13a-octadecahydro-2H-cyclopenta[a]chrysen-9-yl)oxy)carbonyl)-2,2-dimethylcyclobutane-1-carboxylic acid] | 54% |  |  | 255 µg·h/mL | 18700 ng/mL | 81% | 86%
7 | CC(C)C1=C2[C@H]3CC[C@@H]4[C@@]5(C)CC[C@H](OC(=O)[C@H]6C[C@@H](C(=O)O)C6(C)C)C(C)(C)[C@@H]5CC[C@@]4(C)[C@]3(C)CC[C@@]2(NC(=O)C(C)(C)NC(=O)c2ccc(N3CCOCC3)cc2)CC1=O [Example 18, (1R,3S)-3-((((3aR,5aR,5bR,7aR,9S,11aR,11bR,13aS)-1-isopropyl-5a,5b,8,8,11a-pentamethyl-3a-(2-methyl-2-(4-morpholinobenzamido)propanamido)-2-oxo-3,3a,4,5,5a,5b,6,7,7a,8,9,10,11,11a,11b,12,13,13a-octadecahydro-2H-cyclopenta[a]chrysen-9-yl)oxy)carbonyl)-2,2-dimethylcyclobutane-1-carboxylic acid] | 29% |  |  | 236 µg·h/mL | 15900 ng/mL | 78% | 61%
8 | CC(C)C1=C2[C@H]3CC[C@@H]4[C@@]5(C)CC[C@H](OC(=O)[C@H]6C[C@@H](C(=O)O)C6(C)C)C(C)(C)[C@@H]5CC[C@@]4(C)[C@]3(C)CC[C@@]2(NC(=O)C(C)(C)NC(=O)c2cnccn2)CC1=O [Example 5, (1R,3S)-3-((((3aR,5aR,5bR,7aR,9S,11aR,11bR,13aS)-1-isopropyl-5a,5b,8,8,11a-pentamethyl-3a-(2-methyl-2-(pyrazine-2-carboxamido)propanamido)-2-oxo-3,3a,4,5,5a,5b,6,7,7a,8,9,10,11,11a,11b,12,13,13a-octadecahydro-2H-cyclopenta[a]chrysen-9-yl)oxy)carbonyl)-2,2-dimethylcyclobutane-1-carboxylic acid] | 74% | 35% | 4% | 289 µg·h/mL | 26000 ng/mL |  | 
9 | CC(C)C1=C2[C@H]3CC[C@@H]4[C@@]5(C)CC[C@H](OC(=O)[C@H]6C[C@@H](C(=O)O)C6(C)C)C(C)(C)[C@@H]5CC[C@@]4(C)[C@]3(C)CC[C@@]2(NC(=O)C2(NC(=O)c3ccc(Cl)cc3)CCC2)CC1=O [Example 42, (1R,3S)-3-((((3aR,5aR,5bR,7aR,9S,11aR,11bR,13aS)-3a-(1-(4-chlorobenzamido)cyclobutane-1-carboxamido)-1-isopropyl-5a,5b,8,8,11a-pentamethyl-2-oxo-3,3a,4,5,5a,5b,6,7,7a,8,9,10,11,11a,11b,12,13,13a-octadecahydro-2H-cyclopenta[a]chrysen-9-yl)oxy)carbonyl)-2,2-dimethylcyclobutane-1-carboxylic acid] | 27% | 5% | 4% | 481 µg·h/mL | 22900 ng/mL |  | 
10 | CC(C)C1=C2[C@H]3CC[C@@H]4[C@@]5(C)CC[C@H](OC(=O)[C@H]6C[C@@H](C(=O)O)C6(C)C)C(C)(C)[C@@H]5CC[C@@]4(C)[C@]3(C)CC[C@@]2(NC(=O)C(C)(C)NC(=O)c2ccc(Cl)c(Cl)c2)CC1=O [Example 4, (1R,3S)-3-((((3aR,5aR,5bR,7aR,9S,11aR,11bR,13aS)-3a-(2-(3,4-dichlorobenzamido)-2-methylpropanamido)-1-isopropyl-5a,5b,8,8,11a-pentamethyl-2-oxo-3,3a,4,5,5a,5b,6,7,7a,8,9,10,11,11a,11b,12,13,13a-octadecahydro-2H-cyclopenta[a]chrysen-9-yl)oxy)carbonyl)-2,2-dimethylcyclobutane-1-carboxylic acid] | 20% | 12% | 9% | 185 µg·h/mL | 8840 ng/mL |  | 
11 | CC(C)C1=C2[C@H]3CC[C@@H]4[C@@]5(C)CC[C@H](OC(=O)[C@H]6C[C@@H](C(=O)O)C6(C)C)C(C)(C)[C@@H]5CC[C@@]4(C)[C@]3(C)CC[C@@]2(NC(=O)C(C)(C)NC(=O)c2ccc(N)nc2)CC1=O [Example 6, (1R,3S)-3-((((3aR,5aR,5bR,7aR,9S,11aR,11bR,13aS)-3a-(2-(6-aminonicotinamido)-2-methylpropanamido)-1-isopropyl-5a,5b,8,8,11a-pentamethyl-2-oxo-3,3a,4,5,5a,5b,6,7,7a,8,9,10,11,11a,11b,12,13,13a-octadecahydro-2H-cyclopenta[a]chrysen-9-yl)oxy)carbonyl)-2,2-dimethylcyclobutane-1-carboxylic acid] | 60% | 19% | 4% | 100 µg·h/mL | 11100 ng/mL |  | 
